This assay relates to Rat liver homogenates. In words: Antioxidant activity: FeSO₄-induced peroxide production in rat liver homogenates (thiobarbituric acid reaction). The note with it: rat liver homogenate incubated with FeSO₄; peroxide determined by thiobarbituric acid reaction, malonaldehyde as standard; read-out: IC₅₀. It is filed as biochemical. As for the experimental part:
Rat liver homogenates were prepared according to Fraga, C.G. et al. Free Radicals Biol. Med., 4, 155, 1988 and Kornburst D.J. et al. Lipids 15, 315, 1980.
Peroxides were generated by incubation of the homogenate with the FeSO₄ as described by Quitanilha A.T. et al. Ann. N.Y., Acad. Sci. 393, 32, 1982.
Compounds to be tested for their antioxidant activity were dissolved in DMSO and added to the incubation mixture. The amount of peroxide produced was determined by the thiobarbituric acid reaction using malonaldehyde as standard.
Take `CCOP(=O)(OCC)C(=Cc1cc(C(C)(C)C)c(O)c2ccccc12)P(=O)(OCC)OCC` [Example 1, Tetraethyl 2-[3-t-butyl-4-hydroxynaphthyl]ethenylidene-1,1-diphosphonate]: the IC50 was found to be 1500 nM.
Regarding `CC(C)OP(=O)(OC(C)C)C(=Cc1cc(C(C)(C)C)c(O)c2ccccc12)P(=O)(OC(C)C)OC(C)C` [Example 2, Tetraisopropyl 2-[3-t-butyl-4-hydroxynaphthyl]ethenylidene-1,1-diphosphonate], the IC50 was determined as 700 nM.
On to `CC(C)OP(=O)(OC(C)C)C(=Cc1cc(C(C)(C)C)c(O)c2c1CCCC2)P(=O)(OC(C)C)OC(C)C` [Example 8, Tetraisopropyl 2-[3-tert-butyl-4-hydroxy-5,6,7,8-tetrahydronaphthyl]-ethenylidene-1,1-diphosphonate], for which the IC50 was 2500 nM.
For `CCOP(=O)(OCC)C(=Cc1cc(C(C)(C)C)c(O)c2c1CCCC2)P(=O)(OCC)OCC` [Example 6, Tetraethyl 2-(3-tert-butyl-4-hydroxy-5,6,7,8-tetrahydronaphthyl)-ethenylidene-1,1-diphosphonate] the value was 7000 nM.

These data come from patent EP0418064B1, “Naphthalene and tetrahydronaphthalene gem-diphosphonate derivatives” (SYMPHAR S.A., priority 1989, dated 1991).
